# Data as given in PubChem BioAssay (NCI).
#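 Test compounds were applied to cells in 96-well plates for 48 hours at 5 doses. At the GI50, growth is halved. The concentration for full growth arrest is given as TGI.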
# Experiments:
# Assay in all cases: DTP human tumour cell line panel, 48 h
# 786-0 renal = test system: 786-0 renal
# U251 CNS = test system: U251 CNS
# HCT-15 colon = test system: HCT-15 colon
# NCI-H522 lung = test system: NCI-H522 lung
# SN12C renal = test system: SN12C renal
# SNB-19 CNS = test system: SNB-19 CNS
# RPMI-8226 leukemia = test system: RPMI-8226 leukemia
# A549 NSCLC = test system: A549 NSCLC
# OVCAR-3 ovarian = test system: OVCAR-3 ovarian
# IGROV1 ovarian = test system: IGROV1 ovarian
SMILES,GI50 (786-0 renal) [nM],TGI (786-0 renal) [µM],GI50 (U251 CNS) [µM],TGI (U251 CNS) [µM],GI50 (HCT-15 colon) [nM],TGI (HCT-15 colon) [µM],GI50 (NCI-H522 lung) [nM],TGI (NCI-H522 lung) [µM],GI50 (SN12C renal) [nM],TGI (SN12C renal) [µM],GI50 (SNB-19 CNS) [nM],TGI (SNB-19 CNS) [µM],GI50 (RPMI-8226 leukemia) [nM],TGI (RPMI-8226 leukemia) [µM],GI50 (A549 NSCLC) [nM],TGI (A549 NSCLC) [µM],GI50 (OVCAR-3 ovarian) [µM],TGI (OVCAR-3 ovarian) [µM],TGI (IGROV1 ovarian) [µM],GI50 (IGROV1 ovarian) [nM]
COc1ccccc1NS(=O)(=O)c1ccc2oc(SC(C)C)nc2c1,26600,> 100,33.1,> 100,29400,> 100,10200,75.7,15500,34.5,37700,> 100,2400,24.4,16300,88.6,19.3,40.4,–,–
CC1NC(=O)C2=C1C(N)=NC(=O)C2 (configuration not stated),–,> 100,–,> 100,–,> 100,–,> 100,–,> 100,–,> 100,–,> 100,–,> 100,–,> 100,> 100,–
Cc1ccc(-c2nc([P+](c3ccccc3)(c3ccccc3)c3ccccc3)c(Nc3ccccc3)o2)cc1,1180,2.57,0.585,2.14,487,1.81,259,1.15,541,1.84,1160,2.41,227,0.739,1150,2.87,0.288,0.886,2.08,708
C[C@]12CCNC(=O)C=C1CC[C@@H]1C2CC[C@@]2(C)C1CC[C@@H]2OC(=O)COc1ccc(N(CCCl)CCCl)cc1 (some centres not stated),–,3.19,–,11.1,–,13.1,–,3.08,–,21.8,–,50.7,–,47.6,–,23,–,8.25,33.4,–
CCOc1ccc(O)cc1[P+](c1ccccc1)(c1ccccc1)c1ccccc1,–,20.2,–,15,–,–,–,6.39,–,13.7,–,24.5,–,26.5,–,43.2,–,11.4,–,–
NNC(=O)c1ccc(OCc2nc3ccccc3[nH]2)cc1,–,> 100,–,> 100,–,> 100,–,> 100,–,> 100,–,> 100,–,> 100,–,> 100,–,> 100,> 100,–
CSCCCNC(=O)c1csc(-c2csc(CCNC(=O)CNC(=O)CNC(=O)OC(C)(C)C)n2)n1,–,> 100,–,> 100,–,> 100,–,> 100,–,> 100,–,> 100,–,–,–,> 100,–,> 100,> 100,–
C=CCOC(=O)C1CCC(=O)N1C(=O)C(Cl)Cl (configuration not stated),–,> 100,–,> 100,–,> 100,–,> 100,–,> 100,–,> 100,–,> 100,–,> 100,–,> 100,> 100,–
O=C(OC/C=C1C=C(OC(=O)c2ccccc2)/C(=N/N(C(=O)c2ccccc2)c2ccccc2)O\1)c1ccccc1,–,2.95,–,19.3,–,19.7,–,–,–,22.7,–,23,–,7.24,–,22.6,8.35,21.5,13.3,–
O=C(C/C(CCC(=O)N(Cc1ccccc1)Cc1ccccc1)=N/Nc1ccc([N+](=O)[O-])cc1[N+](=O)[O-])c1ccccc1,–,> 100,–,> 100,–,> 100,–,> 100,–,–,–,> 100,–,> 100,–,> 100,–,> 100,> 100,–
Nc1nc(=O)n([C@@H]2CS[C@H](CO)O2)cc1F,> 100000,> 100,> 100,> 100,> 100000,> 100,> 100000,> 100,> 100000,> 100,> 100000,> 100,> 100000,> 100,> 100000,> 100,> 100,> 100,> 100,> 100000
CCOC(=O)c1cnn2c3ccccc3n(S(=O)(=O)c3ccc(OC)cc3)c12,666,> 100,0.377,> 100,119,> 100,338,38.8,625,> 57.5,712,> 100,370,28.2,483,> 100,0.181,0.493,> 100,478
NCCCCCCNCc1cccc2ccccc12,–,> 100,–,> 100,–,> 100,–,> 100,–,> 100,–,> 100,–,> 100,–,> 100,–,> 100,> 100,–
Cc1cc(Nc2cc(N3CCN(C)CC3)nc(Sc3ccc(NC(=O)C4CC4)cc3)n2)n[nH]1,> 10000,> 10,3.05,> 10,5380,> 10,4160,> 10,3590,> 10,> 10000,> 10,4020,> 10,2180,> 10,3.46,> 10,> 10,4820
O=c1[nH]c(=O)n(C2OC(CO)C(O)C2O)cc1OCC(F)(F)F (configuration not stated),–,> 100,–,> 100,–,> 100,–,> 100,–,> 100,–,> 100,–,> 100,–,> 100,–,> 100,> 100,–
COc1cc2c(cc1C1=NC(C)(C)CO1)OCO2,–,> 100,–,> 100,–,> 100,–,> 100,–,> 100,–,> 100,–,> 100,–,> 100,–,> 100,> 100,–
Nc1nc(N)c2cc(Sc3cccc(C(F)(F)F)c3)ccc2n1,–,5.38,–,4.78,–,12.7,–,8.34,–,15.7,–,18.4,–,5.43,–,13.2,–,13.6,15.6,–
CCOC(=O)/C(=C/c1ccc(N(CCC#N)CCC#N)cc1C)NC(=O)/C=C/c1ccccc1,–,> 100,–,> 100,–,> 100,–,> 100,–,> 100,–,> 100,–,> 100,–,> 100,–,> 100,> 100,–

SMILES,GI50 (786-0 renal) [nM],TGI (786-0 renal) [µM],GI50 (U251 CNS) [µM],TGI (U251 CNS) [µM],GI50 (HCT-15 colon) [nM],TGI (HCT-15 colon) [µM],GI50 (NCI-H522 lung) [nM],TGI (NCI-H522 lung) [µM],GI50 (SN12C renal) [nM],TGI (SN12C renal) [µM],GI50 (SNB-19 CNS) [nM],TGI (SNB-19 CNS) [µM],GI50 (RPMI-8226 leukemia) [nM],TGI (RPMI-8226 leukemia) [µM],GI50 (A549 NSCLC) [nM],TGI (A549 NSCLC) [µM],GI50 (OVCAR-3 ovarian) [µM],TGI (OVCAR-3 ovarian) [µM],TGI (IGROV1 ovarian) [µM],GI50 (IGROV1 ovarian) [nM]
COc1cc(/C=C/c2cc(/C=C/c3ccc(O)c(OC)c3)n(C(=O)Nc3ccc(Cl)cc3)n2)ccc1O,515,1.85,0.525,5.33,430,11.6,215,0.802,455,21.6,664,11.1,376,2.48,653,10.3,0.329,1.07,4.66,661
Cc1cccc(NC(=O)/C=C/c2ccc([N+](=O)[O-])cc2)c1,–,> 51.2,–,> 52.9,–,> 56.7,–,> 53.9,–,> 58.2,–,> 47.9,–,> 68.8,–,> 56.2,–,27.6,> 53.7,–
O=C1C2C3C=C4c5ccccc5N(c5ccccc5)C4(C2C(=O)N1c1ccc(Br)cc1)[C@H]1C(=O)N(c2ccc(Br)cc2)C(=O)[C@@H]31 (some centres not stated),–,> 100,–,> 100,–,> 100,–,> 100,–,> 100,–,> 100,–,> 100,–,> 100,–,> 100,> 100,–
COC1C2c3cc4c(cc3CC(C#N)(c3ccccc32)N1C(=O)c1ccccc1)OCO4 (configuration not stated),–,> 100,–,> 100,–,> 100,–,> 100,–,> 100,–,> 100,–,> 100,–,–,–,> 100,> 100,–
CCN1C[C@]2(COC)[C@H](O)C[C@H](OC)[C@]34C1[C@H]([C@H](OC)[C@H]23)[C@]1(OC(C)=O)[C@H]2[C@@H](OC(=O)c3ccccc3)[C@](O)(C[C@H]24)[C@@H](OC)[C@@H]1O,–,> 100,–,> 100,–,> 100,–,> 100,–,> 100,–,> 100,–,–,–,> 100,–,–,> 100,–
CCCCCCCC(=O)OCC(=O)[C@]1(O)Cc2c(O)c3c(c(O)c2[C@@H](OC2CC(N)C(O)C(C)O2)C1)C(=O)c1c(OC)cccc1C3=O (some centres not stated),62.2,1.25,–,–,703,2.14,–,–,–,–,60.1,1.25,–,–,–,–,–,–,–,–
CCCCCCCCCCCCCC(=O)CSCCNC(=O)CCNC(=O)[C@@H](O)C(C)(C)COP(=O)(O)OP(=O)(O)OCC1OC(n2cnc3c(N)ncnc32)C(O)C1OP(=O)(O)O (some centres not stated),–,30.1,–,39.2,–,42.7,–,25.5,–,34.5,–,35.2,–,–,–,45.9,–,> 100,28.6,–
CN(/N=C/c1cccc2cccnc12)c1c([N+](=O)[O-])cc([N+](=O)[O-])cc1[N+](=O)[O-],–,> 100,–,> 100,–,> 100,–,–,–,> 100,–,> 100,–,> 100,–,> 100,–,> 100,> 100,–
CCCN(CCC)c1c([N+](=O)[O-])cc(C(=O)N(CCO)CCO)cc1[N+](=O)[O-],–,> 100,–,> 100,–,> 100,–,> 100,–,> 100,–,–,–,> 100,–,> 100,–,> 100,> 100,–
CCOC(=O)/C=C/C(=O)[C@H](CC(C)C)NC(=O)[C@H](Cc1ccccc1)NC(=O)OCc1ccccc1,1840,3.4,13.2,27.2,1830,3.78,2100,4.37,–,–,12600,28.1,2130,5.97,20700,39.6,3.19,10.4,4.89,2320
CN(C)CCNC(=O)c1cccc2ccc(-c3ccc(-c4ccccc4)cc3)nc12,–,3.39,–,4.65,–,4.14,–,4.33,–,20.2,–,25.1,–,–,–,7.66,–,12,> 44.9,–
N#Cc1ccc2cc3c(cc2c1)OCO3,–,> 100,–,> 100,–,> 100,–,> 100,–,> 100,–,> 100,–,> 100,–,–,–,> 100,> 100,–
CC12CCC3c4cc(Br)c(O)c(Br)c4CCC3C1CCC2O (configuration not stated),–,42,–,29.6,–,–,–,–,–,42,–,–,–,–,–,40.9,–,56.4,34,–
C#CC1(O)CCC2[C@@H]3CCc4cc(Oc5nc(F)nc(-c6c7ccccc7cn6C)n5)ccc4C3CC[C@@]21C (some centres not stated),–,> 100,–,> 100,–,> 100,–,> 100,–,> 100,–,> 100,–,> 70.7,–,> 100,–,> 100,–,–
Cc1ccc(C)c(NC(=O)CC2SC(=Nc3ccccc3Cl)NC2=O)c1 (configuration not stated),–,> 100,–,> 100,–,> 100,–,96.5,–,> 100,–,> 100,–,–,–,> 100,–,> 100,> 100,–
C=C(C)C(=O)O[C@@H]1C/C(C)=C\[C@H](OC(C)=O)C[C@](C)(O)/C=C2/OC(=O)C(COC(C)=O)=C21,–,6.03,–,–,–,0.786,–,0.539,–,2.85,–,41.8,–,1.73,–,> 23.3,–,–,3,–
CCn1c2c(c3ccccc31)C(c1ccccc1)CC1C(=O)N(c3ccccc3)C(=O)C21 (configuration not stated),–,> 100,–,–,–,> 100,–,> 100,–,> 100,–,> 100,–,–,–,> 100,–,> 100,> 100,–
Cc1ccc(NC(=O)/C(=N/N(C)C)C(C2OC(=O)c3ccccc32)[N+](=O)[O-])cc1 (configuration not stated),–,> 100,–,> 100,–,> 100,–,–,–,> 100,–,–,–,> 100,–,> 100,–,> 100,–,–
